The supplement of paper PMC10307832

Columns and labels:
Assay in all cases: relative viability (nuclei count vs DMSO), 5 days (fraction); higher = more cells survive
[1] = compound: O=C(C[C@H]1NCCC[C@@H]1O)Cn1cnc2cc(Br)c(Cl)cc2c1=O (racemic) [Halofuginone] + N=C(N)NC(=N)NCCc1ccccc1 [Phenformin] (partner 250 µM)
In short: (§1)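 Lung cancer cell lines in 1536-well plates got either a single drug or a fixed anchor-drug dose together with five library-drug doses (not always all listed) in √10 steps, by pin tool, on the day after seeding. Nuclei were counted after 5 days, and relative viability is the treated-to-vehicle ratio of nuclei counts. Values are medians of duplicate plates.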

Decitabine + Luminespib = compound: Nc1ncn([C@H]2C[C@H](O)[C@@H](CO)O2)c(=O)n1 [Decitabine] + CCNC(=O)c1noc(-c2cc(C(C)C)c(O)cc2O)c1-c1ccc(CN2CCOCC2)cc1 [Luminespib] (partner 0.01 µM)
In short: as §1

Halofuginone + Olaparib = compound: O=C(C[C@H]1NCCC[C@@H]1O)Cn1cnc2cc(Br)c(Cl)cc2c1=O (racemic) [Halofuginone] + O=C(c1cc(Cc2n[nH]c(=O)c3ccccc23)ccc1F)N1CCN(C(=O)C2CC2)CC1 [Olaparib] (partner 8 µM)
In short: as §1

Halofuginone + Foretinib = compound: O=C(C[C@H]1NCCC[C@@H]1O)Cn1cnc2cc(Br)c(Cl)cc2c1=O (racemic) [Halofuginone] + COc1cc2c(Oc3ccc(NC(=O)C4(C(=O)Nc5ccc(F)cc5)CC4)cc3F)ccnc2cc1OCCCN1CCOCC1 [Foretinib] (partner 0.25 µM)
In short: as §1

UMC-11 showed a relative viability ([1]; first compound 0.001 µM) of 0.345, a relative viability ([1]; first compound 0.003162 µM) of 0.343 and a relative viability ([1]; first compound 0.01 µM) of 0.324. The relative viability ([1]; first compound 0.03162 µM) was 0.316, the relative viability ([1]; first compound 0.1 µM) was 0.267 and the relative viability (Decitabine + Luminespib; first compound 0.04 µM) was 0.935. It also gave a relative viability (Decitabine + Luminespib; first compound 0.1265 µM) of 0.773, a relative viability (Decitabine + Luminespib; first compound 0.4 µM) of 0.559 and a relative viability (Decitabine + Luminespib; first compound 1.265 µM) of 0.382. The relative viability (Decitabine + Luminespib; first compound 4 µM) was 0.372, the relative viability (Halofuginone + Olaparib; first compound 0.001 µM) was 0.426 and the relative viability (Halofuginone + Olaparib; first compound 0.003162 µM) was 0.381. The relative viability (Halofuginone + Olaparib; first compound 0.01 µM) was 0.566, the relative viability (Halofuginone + Olaparib; first compound 0.03162 µM) was 0.471 and the relative viability (Halofuginone + Olaparib; first compound 0.1 µM) was 0.226. The relative viability (Halofuginone + Foretinib; first compound 0.001 µM) was 1.11, the relative viability (Halofuginone + Foretinib; first compound 0.003162 µM) was 1 and the relative viability (Halofuginone + Foretinib; first compound 0.01 µM) was 0.991. The relative viability (Halofuginone + Foretinib; first compound 0.03162 µM) was 0.848 and the relative viability (Halofuginone + Foretinib; first compound 0.1 µM) was 0.72.
